Test results: patent US20140349994A1, “Novel 2-Amino-4,5,6,8-Tetrahydropyrazolo[3,4-b]Thiazolo [4,5-d]Azepine Derivatives and Their Use as Allosteric Modulators of Metabotropic Glutamate Receptors” (Addex Pharma S.A., priority 2012, published 2014)

Columns and labels:
[1] = target: T1, recombinant human mGluR4a receptors (Homo sapiens, UniProt Q14833); assay: mGluR4 assay on HEK-expressing human mGluR4: fluorescent cell based Ca2+ mobilization assay (FLIPR); conditions: HEK-293 cells expressing hmGluR4; enhancement of EC25 glutamate response; mean of at least three independent experiments in duplicate; read-out: Ca^2+ Flux (mean EC50)
T1 construct: expressed in transfected cells
T1 sequence (Q14833 33-912): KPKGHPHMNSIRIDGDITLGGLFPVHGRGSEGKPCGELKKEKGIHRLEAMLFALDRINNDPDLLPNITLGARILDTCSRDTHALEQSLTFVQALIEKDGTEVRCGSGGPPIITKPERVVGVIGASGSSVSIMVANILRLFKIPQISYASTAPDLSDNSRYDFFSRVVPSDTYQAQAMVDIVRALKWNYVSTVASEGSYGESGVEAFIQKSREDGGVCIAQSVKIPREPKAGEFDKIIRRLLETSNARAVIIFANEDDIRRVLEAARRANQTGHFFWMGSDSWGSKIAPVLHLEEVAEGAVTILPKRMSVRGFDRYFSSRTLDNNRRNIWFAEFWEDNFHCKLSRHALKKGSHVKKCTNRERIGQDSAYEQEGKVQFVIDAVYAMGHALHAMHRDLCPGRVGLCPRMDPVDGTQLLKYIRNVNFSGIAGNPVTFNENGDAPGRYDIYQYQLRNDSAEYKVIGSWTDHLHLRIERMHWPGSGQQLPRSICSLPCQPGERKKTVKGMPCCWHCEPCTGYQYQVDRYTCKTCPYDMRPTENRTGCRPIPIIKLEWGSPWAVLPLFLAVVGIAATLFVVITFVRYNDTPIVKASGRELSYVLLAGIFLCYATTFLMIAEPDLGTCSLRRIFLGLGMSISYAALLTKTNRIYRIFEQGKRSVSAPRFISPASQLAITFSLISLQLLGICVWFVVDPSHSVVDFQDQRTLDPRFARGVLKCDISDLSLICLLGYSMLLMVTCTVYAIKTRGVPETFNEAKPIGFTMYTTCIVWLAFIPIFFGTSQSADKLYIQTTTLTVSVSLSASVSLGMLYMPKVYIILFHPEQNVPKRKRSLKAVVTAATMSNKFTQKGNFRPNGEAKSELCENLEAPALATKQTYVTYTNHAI
Description: mGluR4 Assay on HEK-Expressing Human mGluR4
The compounds of the present invention are positive allosteric modulators of mGluR4 receptor. Their activity was examined on recombinant human mGluR4a receptors by detecting changes in intracellular Ca^2+ concentration, using the fluorescent Ca^2+-sensitive dye Fluo4-(AM) and a Fluorometric Imaging Plate Reader (FLIPR, Molecular Devices, Sunnyvale, Calif.).
The cDNA encoding the human metabotropic glutamate receptor (hmGluR4), (accession number NM 000841.1, NCBI Nucleotide database browser), was subcloned into an expression vector containing also the hygromycin resistance gene. In parallel, the cDNA encoding a G protein allowing redirection of the activation signal to intracellular calcium flux was subcloned into a different expression vector containing also the puromycin resistance gene. Transfection of both these vectors into HEK293 cells with PolyFect reagent (Qiagen) according to supplier's protocol, and hygromycin and puromycin treatment allowed selection of antibiotic resistant cells which had integrated stably one or more copies of the plasmids. Positive cellular clones expressing hmGluR4 were identified in a functional assay measuring changes in calcium fluxes in response to glutamate or selective known mGluR4 orthosteric agonists and antagonists.
HEK-293 cells expressing hmGluR4 were maintained in media containing DMEM, dialyzed Fetal Calf Serum (10%), Glutamax™ (2 mM), Penicillin (100 units/mL), Streptomycin (100 μg/mL), Geneticin (100 μg/mL) and Hygromycin-B (40 μg/mL) and puromycin (1 μg/mL) at 37° C.5% CO2.
Human mGluR4 HEK-293 cells were plated out 24 hours prior to FLIPR^384 assay in black-walled, clear-bottomed, poly-L-ornithine-coated 384-well plates at a density of 25,000 cells/well in a glutamine/glutamate free DMEM medium containing foetal bovine serum (10%), penicillin (100 units/mL) and streptomycin (100 μg/mL) at 37° C.5% CO2.
On the day of the assay, the medium was aspirated and the cells were loaded with a 3 μM solution of Fluo4-AM (LuBioScience, Lucerne, Switzerland) in 0.03% pluronic acid. After 1 hour at 37° C. 5% CO2, the non incorporated dye was removed by washing cell plate with the assay buffer and the cells were left in the dark at room temperature for six hours before testing. All assays were performed in a pH 7.4 buffered-solution containing 20 mM HEPES, 143 mM NaCl, 6 mM KCl, 1 mM MgSO4, 1 mM CaCl2, 0.125 mM sulfapyrazone and 0.1% glucose.
After 10 s of basal fluorescence recording, various concentrations of the compounds of the invention were added to the cells. Changes in fluorescence levels were first monitored for 180 s in order to detect any agonist activity of the compounds. Then the cells were stimulated by an EC25 glutamate concentration for an additional 110 s in order to measure enhancing activities of the compounds of the invention. EC25 glutamate concentration is the concentration giving 25% of the maximal glutamate response.
The concentration-response curves of representative compounds of the present invention were generated using the Prism GraphPad software (Graph Pad Inc, San Diego, USA). The curves were fitted to a four-parameter logistic equation:
(Y=Bottom+(Top-Bottom)(1+10̂((Log EC50−X)*Hill Slope)
allowing the determination of EC50 values.
The Table 3 below represents the mean EC50 obtained from at least three independent experiments of selected molecules performed in duplicate.

SMILES	EC50 [1] [nM]	melting point [°C]
CC(C)N1CCN(CCN2CCc3sc(Nc4ncc(F)cn4)nc3-c3cn[nH]c32)CC1 [Compound 1-141, N-(5-Fluoropyrimidin-2-yl)-6-(2-(4-isopropylpiperazin-1-yl)ethyl)-4,5,6,8-tetrahydropyrazolo[3,4-b]thiazolo[4,5-d]azepin-2-amine]	1000 to 10000	–
N#Cc1cccc(CN2CCc3sc(Nc4ncc(F)cn4)nc3-c3cn[nH]c32)c1 [Compound 1-1, 3-((2-(5-Fluoropyrimidin-2-ylamino)-4,5-dihydropyrazolo[3,4-b]thiazolo[4,5-d]azepin-6(7H)-yl)methyl)benzonitrile]	100 to 1000	282 to 284
Cc1cccc(Nc2nc3c(s2)CCN(C[C@@H]2CCCO2)c2[nH]ncc2-3)n1 [Compound 1-127]	100 to 1000	229 to 231
Cc1ccnc(Nc2nc3c(s2)CCN(Cc2ncccn2)c2[nH]ncc2-3)n1 [Compound 1-152]	100 to 1000	–
Fc1cnc(Nc2nc3c(s2)CCN(Cc2cccc(F)c2)c2[nH]ncc2-3)nc1 [Compound 1-2]	1000 to 10000	265 to 270
Cn1ccc(CN2CCc3sc(Nc4ncc(F)cn4)nc3-c3cn[nH]c32)n1 [Compound 1-139]	100 to 1000	195 to 200
Fc1cnc(Nc2nc3c(s2)CCN(CC2CC(F)(F)C2)c2[nH]ncc2-3)nc1 [Compound 1-14]	100 to 1000	> 280
Fc1cnc(Nc2nc3c(s2)CCN(CCCN2CCCCC2)c2[nH]ncc2-3)nc1 [Compound 1-144]	100 to 1000	227
OCCCN1CCc2sc(Nc3ncc(F)cn3)nc2-c2cn[nH]c21 [Compound 1-132, 3-(2-(5-Fluoropyrimidin-2-ylamino)-4,5-dihydropyrazolo[3,4-b]thiazolo[4,5-d]azepin-6(8H)-yl)propan-1-ol]	100 to 1000	–
CNCCCN1CCc2sc(Nc3ncc(F)cn3)nc2-c2cn[nH]c21 [Compound 1-130, N-(5-Fluoropyrimidin-2-yl)-6-(3-(methylamino)propyl)-4,5,6,8-tetrahydropyrazolo[3,4-b]thiazolo[4,5-d]azepin-2-amine]	1000 to 10000	–
COC[C@H](C)N1CCc2sc(Nc3ncc(F)cn3)nc2-c2cn[nH]c21 [Compound 1-131, N-(5-Fluoropyrimidin-2-yl)-6-(2-methoxy-1(S)-methyl-ethyl)-4,5,6,8-tetrahydropyrazolo[3,4-b]thiazolo[4,5-d]azepin-2-amine]	< 100	249 to 251
Fc1cnc(Nc2nc3c(s2)CCN(CCCN2CCC(F)(F)CC2)c2[nH]ncc2-3)nc1 [Compound 1-148, 6-(3-(4,4-Difluoropiperidin-1-yl)propyl)-N-(5-fluoropyrimidin-2-yl)-4,5,6,8-tetrahydropyrazolo[3,4-b]thiazolo[4,5-d]azepin-2-amine]	100 to 1000	238 to 240
Cc1ccnc(Nc2nc3c(s2)CCN(CCCN2CCOCC2)c2[nH]ncc2-3)n1 [Compound 1-145]	< 100	251
Fc1cnc(Nc2nc3c(s2)CCN(CCN2CCOCC2)c2[nH]ncc2-3)nc1 [Compound 1-136, N-(5-Fluoropyrimidin-2-yl)-6-(2-morpholinoethyl)-4,5,6,8-tetrahydropyrazolo[3,4-b]thiazolo[4,5-d]azepin-2-amine]	100 to 1000	–
COCC(C)N1CCc2sc(Nc3ncc(F)cn3)nc2-c2cn[nH]c21 (centres unmarked) [Compound 1-125]	< 100	212 to 215
Fc1cnc(Nc2nc3c(s2)CCN(Cc2csc(C4CC4)n2)c2[nH]ncc2-3)nc1 [Compound 1-8]	100 to 1000	240 to 245
Cc1nc(CN2CCc3sc(Nc4ncc(F)cn4)nc3-c3c[nH]nc32)no1 [Compound 1-138, N-(5-Fluoropyrimidin-2-yl)-6-((5-methyl-1,2,4-oxadiazol-3-yl)methyl)-4,5,6,8-tetrahydropyrazolo[3,4-b]thiazolo[4,5-d]azepin-2-amine]	< 100	–
COCCOCCN1CCc2sc(Nc3ncc(F)cn3)nc2-c2cn[nH]c21 [Compound 1-133]	< 100	> 220
CCOCCN1CCc2sc(Nc3ncc(F)cn3)nc2-c2cn[nH]c21 [Compound 1-134]	< 100	246
Fc1cnc(Nc2nc3c(s2)CCN(Cc2ccc(N4CCOCC4)cn2)c2[nH]ncc2-3)nc1 [Compound 1-135, N-(5-Fluoropyrimidin-2-yl)-6-((5-morpholinopyridin-2-yl)methyl)-4,5,6,8-tetrahydropyrazolo[3,4-b]thiazolo[4,5-d]azepin-2-amine]	< 100	240
FCCCN1CCc2sc(Nc3ncc(F)cn3)nc2-c2cn[nH]c21 [Compound 1-149]	1000 to 10000	> 290
Cc1ccnc(Nc2nc3c(s2)CCNc2[nH]ncc2-3)n1 [Compound 1-52]	< 100	229 to 232
Cc1nc(Nc2nc3c(s2)CCN(CC2CC2)c2[nH]ncc2-3)ns1 [Compound 1-3]	1000 to 10000	–
COC(C)(C)CN1CCc2sc(Nc3ncc(F)cn3)nc2-c2cn[nH]c21 [Compound 1-124]	100 to 1000	282 to 285

Further lines, results first:

EC50 [1] [nM]	melting point [°C]	SMILES
< 100	261 to 263	COCCN1CCc2sc(Nc3ncc(F)c(C)n3)nc2-c2cn[nH]c21 [Compound 1-129, N-(5-Fluoro-4-methylpyrimidin-2-yl)-6-(2-methoxyethyl)-4,5,6,8-tetrahydropyrazolo[3,4-b]thiazolo[4,5-d]azepin-2-amine]
< 100	283 to 286	FCCN1CCc2sc(Nc3ncc(F)cn3)nc2-c2cn[nH]c21 [Compound 1-137]
< 100	–	Fc1cnc(Nc2nc3c(s2)CCN(Cc2cc(C4CC4)on2)c2[nH]ncc2-3)nc1 [Compound 1-4]
< 100	–	Cc1noc(CN2CCc3sc(Nc4ncc(F)cn4)nc3-c3cn[nH]c32)n1 [Compound 1-150, N-(5-Fluoropyrimidin-2-yl)-6-((3-methyl-1,2,4-oxadiazol-5-yl)methyl)-4,5,6,8-tetrahydropyrazolo[3,4-b]thiazolo[4,5-d]azepin-2-amine]
< 100	223	CC1COCC(C)N1CCCN1CCc2sc(Nc3ncc(F)cn3)nc2-c2cn[nH]c21 (centres unmarked) [Compound 1-153]
< 100	272 to 273	O=S1(=O)CCN(CCCN2CCc3sc(Nc4ncc(F)cn4)nc3-c3cn[nH]c32)CC1 [Compound 1-151, 4-(3-(2-((5-Fluoropyrimidin-2-yl)amino)-4,5-dihydropyrazolo[3,4-b]thiazolo[4,5-d]azepin-6(8H)-yl)propyl)thiomorpholine 1,1-dioxide]
< 100	–	Fc1cnc(Nc2nc3c(s2)CCN(C[C@@H]2CCCO2)c2[nH]ncc2-3)nc1 [Compound 1-126]
< 100	165 to 168	Cc1ccnc(Nc2nc3c(s2)CCN(Cc2ccc(Cl)cn2)c2[nH]ncc2-3)n1 [Compound 1-10]
< 100	> 260	CC(C)c1nc(CN2CCc3sc(Nc4ncc(F)cn4)nc3-c3cn[nH]c32)no1 [Compound 1-147]
< 100	198 to 202	COCc1ccc(CN2CCc3sc(Nc4ncc(F)cn4)nc3-c3cn[nH]c32)nc1 [Compound 1-143]
< 100	–	Cc1ccnc(Nc2nc3c(s2)CCN(Cc2noc(C)n2)c2[nH]ncc2-3)n1 [Compound 1-146]
< 100	–	Fc1cnc(Nc2nc3c(s2)CCN(CCCN2CCOCC2)c2n[nH]cc2-3)nc1 [Compound 1-140, N-(5-Fluoropyrimidin-2-yl)-6-(3-morpholinopropyl)-4,5,6,8-tetrahydropyrazolo[3,4-b]thiazolo[4,5-d]azepin-2-amine]
< 100	266 to 268	Fc1cnc(Nc2nc3c(s2)CCN(Cc2cc(C4CC4)no2)c2[nH]ncc2-3)nc1 [Compound 1-7]
